Experimental data as given in patent US20100130607A1, “NEUROPROTECTION IN DEMYELINATING DISEASES” (priority 2007, published 2010).
“Also recorded” adds a separate entry of the source. Structures can show the parent of a compound that is named as a salt.

Columns and labels:
MOG-EAE in C57BL/6 mice [1] = assay: Clinical course (clinical score) of active MOG-EAE; type: in vivo; conditions: oral, from day -20, up to 72 days p.i., vs methocel control
Description: Treatment started at day -20 before the injection of MOG. The following compounds were administered orally to three groups of mice as follows: 1) Ca-monomethyl fumarate 5 mg/kg body weight bid; 2) dimethyl fumarate 15 mg/kg body weight bid; 3) 0.08% methocel as control. For analyzing the clinical course, data was pooled from two experiments (one experiment with 6 mice and another with 8 mice per group yielding a total number of 14 mice per experimental group). Clinical evaluation-Symptoms were scored 1-10 on a daily basis as described in Linker et al., Nat. Med., 2002, […] (see also Hartung et al., Brain, 1988, 11, 1039-1059). Briefly, disease severity was scored as follows: 0, normal; 1, reduced tone of tail; 2, limp tail, impaired righting; 3, absent righting; 4, gait ataxia; 5, mild paraparesis of hindlimbs; 6, moderate paraparesis; 7, severe paraparesis or paraplegia; 8, tetraparesis; 9, moribund; 10, death. Relapses were defined as deterioration by 2 points or more within 2 days. […] Animals were pooled from two experiments (total number of 14 mice per group). Mice were followed until the late phase of the disease (72 days p.i.).

MOG-EAE in C57BL/6 mice [2] = assay: Blinded histological analysis of spinal cord in MOG-EAE, 72 days p.i.; type: in vivo; conditions: oral, vs methocel control; for numbers of CD 3 positive T cells infiltrating the spinal cord / numbers of Mac-3 positive macrophages and microglia infiltrating the spinal cord: 72 days after induction of MOG-EAE; for axonal loss (relative axonal density) / level of demyelination (% white matter): spinal cord, 72 days p.i.
Description: Treatment started at day -20 before the injection of MOG. The following compounds were administered orally to three groups of mice as follows: 1) Ca-monomethyl fumarate 5 mg/kg body weight bid; 2) dimethyl fumarate 15 mg/kg body weight bid; 3) 0.08% methocel as control. For analyzing the clinical course, data was pooled from two experiments (one experiment with 6 mice and another with 8 mice per group yielding a total number of 14 mice per experimental group). Histology-One experiment was terminated on day 72 p.i. for histologic evaluation. At that time point, 6 mice in the MMF and 6 mice in the control group were available for analysis. The DMF group consisted of 4 mice (2 non-EAE related drop-outs). Mice were anesthetized with ether, bled and perfused with 25 ml Ringer solution and 10 ml of 4% paraformaldehyde in buffered PBS. Spinal cord was dissected out and fixed overnight in 4% paraformaldehyde in buffered PBS at 4° C. before embedding in paraffin. Paraffin sections were stained with hematoxylin and eosin for visualization of inflammatory infiltrates and Luxol fast blue for visualization of demyelination. Coded sections from cervical, thoracic and lumbar spinal cord were evaluated by a blinded observer by means of overlaying a stereological grid and counting mean CD3 and Mac-3 positive cells within 3 visual fields (each 0.096 mm^2) with the most intense pathology under a 400-fold magnification. The extent of demyelination was assessed by relating the number of grid squares with demyelination to the total number of grid squares containing white matter over an average of 8-10 independent levels of spinal cord per mouse. CD3, Mac-3 positive cells and APP positive axons were quantified on 3 representative sections, each one of cervical, thoracic and lumbar spinal cord by counting 2 defined areas with the most intense pathology under a 40-fold magnification. Histological evaluation was performed as described in Eugster et al., Eur. J. Immunol., 1999, […].

[3] = Ca-monomethyl fumarate 5 mg/kg bid

Structure (SMILES) | clinical score / disease course (MOG-EAE in C57BL/6 mice [1]; dimethyl fumarate 15 mg/kg body weight bid) | numbers of CD 3 positive T cells infiltrating the spinal cord (MOG-EAE in C57BL/6 mice [2]; dimethyl fumarate 15 mg/kg bid) | numbers of Mac-3 positive macrophages and microglia infiltrating the spinal cord (MOG-EAE in C57BL/6 mice [2]; dimethyl fumarate 15 mg/kg bid) | axonal loss (relative axonal density) (MOG-EAE in C57BL/6 mice [2]; dimethyl fumarate 15 mg/kg bid) | level of demyelination (% white matter) (MOG-EAE in C57BL/6 mice [2]; dimethyl fumarate 15 mg/kg bid) | clinical score / disease course (MOG-EAE in C57BL/6 mice [1]; Ca-monomethyl fumarate 5 mg/kg body weight bid) | numbers of CD 3 positive T cells infiltrating the spinal cord (MOG-EAE in C57BL/6 mice [2]; [3]) | numbers of Mac-3 positive macrophages and microglia infiltrating the spinal cord (MOG-EAE in C57BL/6 mice [2]; [3]) | axonal loss (relative axonal density) (MOG-EAE in C57BL/6 mice [2]; [3]) | level of demyelination (% white matter) (MOG-EAE in C57BL/6 mice [2]; [3])
COC(=O)/C=C/C(=O)OC [DMF, dimethyl fumarate, reference compound] | significantly milder disease course; also recorded: effective to reduce the clinical score up to 72 days p.i | not significantly different | not significantly different | reduced | reduced |  |  |  |  | 
COC(=O)/C=C/C(=O)O [MMF, Ca-monomethyl fumarate] |  |  |  |  |  | not sufficient to significantly affect the clinical score | not significantly different | not significantly different | reduced demyelination and axonal loss | reduced demyelination and axonal loss
